What was measured:
CKL7 (AT5G44100) = biological target: T1, CKL7 (AT5G44100) (Arabidopsis thaliana, UniProt Q9FFH8); assay: AMI‐329 bead binding with AMI‐331 competitor, CKL7
T1 construct: from tissue; host or cells: Arabidopsis seedlings, two weeks old
Experimental: (§1) Screening for proteins bound to AMI‐329 beads was done by a method similar to what has previously been described (Uehara et al., 2019). Briefly, two‐week‐old seedlings grown under LD conditions were harvested at time points ZT2, ZT6, ZT9, and ZT17, and stored at −80°C. Proteins from the frozen plant samples were incubated with 0, 5, or 50 µM of AMI‐331 at 4°C for 30 min with rotary mixing. Two technical replicates were used for each experiment. PBS‐washed AMI‐329 beads were added to the protein samples and gently rotated at 4°C for 1 hr. AMI‐329 bead resins were washed with bead buffer (Uehara et al., 2019) six times. The washed resins were suspended in SDS sample buffer and boiled for 8 min. Protein samples were in‐gel‐digested as previously described (Uehara et al., 2019). Peptides were analyzed with a Q Exactive hybrid quadrupole‐orbitrap mass spectrometer (Thermo Fisher Scientific), as described previously (Uehara et al., 2019). […]
(§2) However, another possible mechanism for the strong AMI‐331 biological activity in vivo is that it targets proteins other than the CK1 family for period lengthening. […] It is noteworthy that kinase AT4G08800 is very similar to the CKL family, but the ATP‐binding pocket of mammalian CK1 as determined by its crystal structure (Shinohara et al., 2017) was absent from AT4G08800, as shown in an Araport 11 model (https://www.araport.org). […]

CKL5 (AT2G19470) = biological target: T2, CKL5 (AT2G19470) (Arabidopsis thaliana, UniProt Q9ZUP4); assay: AMI‐329 bead binding with AMI‐331 competitor, CKL5
T2 construct: from tissue; host or cells: Arabidopsis seedlings, two weeks old
T2 sequence (Q9ZUP4 whole entry): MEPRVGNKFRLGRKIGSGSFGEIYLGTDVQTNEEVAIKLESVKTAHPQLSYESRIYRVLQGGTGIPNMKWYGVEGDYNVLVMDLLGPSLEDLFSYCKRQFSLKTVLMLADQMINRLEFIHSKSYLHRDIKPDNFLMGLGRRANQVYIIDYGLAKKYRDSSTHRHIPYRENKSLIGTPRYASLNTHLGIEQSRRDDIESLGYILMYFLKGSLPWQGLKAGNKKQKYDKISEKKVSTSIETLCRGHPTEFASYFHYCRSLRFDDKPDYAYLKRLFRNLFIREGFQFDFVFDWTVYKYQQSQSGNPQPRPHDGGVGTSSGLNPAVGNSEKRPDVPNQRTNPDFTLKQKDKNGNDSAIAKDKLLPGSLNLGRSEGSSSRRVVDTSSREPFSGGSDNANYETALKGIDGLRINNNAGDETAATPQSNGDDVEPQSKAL
Experimental: as §1, §2

CKL12 (AT5G57015) = biological target: T3, CKL12 (AT5G57015) (Arabidopsis thaliana, UniProt Q8VYK9); assay: AMI‐329 bead binding with AMI‐331 competitor, CKL12
T3 construct: from tissue; host or cells: Arabidopsis seedlings, two weeks old
T3 sequence (Q8VYK9 whole entry): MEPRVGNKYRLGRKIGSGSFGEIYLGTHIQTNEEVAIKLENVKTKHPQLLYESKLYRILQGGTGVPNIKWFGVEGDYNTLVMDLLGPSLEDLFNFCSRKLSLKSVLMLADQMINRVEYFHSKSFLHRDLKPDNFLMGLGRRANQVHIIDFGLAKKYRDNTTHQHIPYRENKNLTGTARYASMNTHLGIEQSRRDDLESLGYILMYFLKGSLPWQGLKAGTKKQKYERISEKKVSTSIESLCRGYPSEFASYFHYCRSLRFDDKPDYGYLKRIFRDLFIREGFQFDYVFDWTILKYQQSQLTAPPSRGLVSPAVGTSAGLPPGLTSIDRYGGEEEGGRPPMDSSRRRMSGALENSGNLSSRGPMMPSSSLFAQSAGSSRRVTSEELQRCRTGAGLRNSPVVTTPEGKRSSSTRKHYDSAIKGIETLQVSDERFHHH
Experimental: as §1, §2

MPK family = assay: AMI‐329 bead binding with AMI‐331 competitor, MPK family; design: species or system Arabidopsis thaliana
Experimental: Screening for proteins bound to AMI‐329 beads was done by a method similar to what has previously been described (Uehara et al., 2019). Briefly, two‐week‐old seedlings grown under LD conditions were harvested at time points ZT2, ZT6, ZT9, and ZT17, and stored at −80°C. Proteins from the frozen plant samples were incubated with 0, 5, or 50 µM of AMI‐331 at 4°C for 30 min with rotary mixing. Two technical replicates were used for each experiment. PBS‐washed AMI‐329 beads were added to the protein samples and gently rotated at 4°C for 1 hr. AMI‐329 bead resins were washed with bead buffer (Uehara et al., 2019) six times. The washed resins were suspended in SDS sample buffer and boiled for 8 min. Protein samples were in‐gel‐digested as previously described (Uehara et al., 2019). Peptides were analyzed with a Q Exactive hybrid quadrupole‐orbitrap mass spectrometer (Thermo Fisher Scientific), as described previously (Uehara et al., 2019). MS/MS spectra were interpreted, and peak lists were generated using Proteome Discoverer 2.0.0.802 (Thermo Fisher Scientific). Searches were performed using SEQUEST (Thermo Fisher Scientific) against the Arabidopsis thaliana (TAIR TaxID = 3,702) peptide sequence database. […]
To examine other potential targets of AMI‐331, we analyzed the spectra for PHA767491 target proteins (Uehara et al., 2019). […]

[1] = biological target: T4, Membrane protein AT5G40670 (Arabidopsis thaliana, UniProt P57758); assay: AMI‐329 bead binding with AMI‐331 competitor, membrane protein AT5G40670
T4 construct: from tissue; host or cells: Arabidopsis seedlings, two weeks old
T4 sequence (P57758 whole entry): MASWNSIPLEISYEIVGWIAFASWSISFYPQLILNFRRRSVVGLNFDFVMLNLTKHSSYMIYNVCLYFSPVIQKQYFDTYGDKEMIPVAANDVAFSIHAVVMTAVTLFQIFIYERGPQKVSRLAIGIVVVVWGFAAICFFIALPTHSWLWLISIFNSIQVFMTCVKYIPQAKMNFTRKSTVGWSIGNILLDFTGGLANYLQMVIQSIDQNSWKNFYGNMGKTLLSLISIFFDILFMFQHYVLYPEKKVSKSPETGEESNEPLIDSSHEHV
Experimental: as §1, §2

T1 sequence (Q9FFH8 whole entry): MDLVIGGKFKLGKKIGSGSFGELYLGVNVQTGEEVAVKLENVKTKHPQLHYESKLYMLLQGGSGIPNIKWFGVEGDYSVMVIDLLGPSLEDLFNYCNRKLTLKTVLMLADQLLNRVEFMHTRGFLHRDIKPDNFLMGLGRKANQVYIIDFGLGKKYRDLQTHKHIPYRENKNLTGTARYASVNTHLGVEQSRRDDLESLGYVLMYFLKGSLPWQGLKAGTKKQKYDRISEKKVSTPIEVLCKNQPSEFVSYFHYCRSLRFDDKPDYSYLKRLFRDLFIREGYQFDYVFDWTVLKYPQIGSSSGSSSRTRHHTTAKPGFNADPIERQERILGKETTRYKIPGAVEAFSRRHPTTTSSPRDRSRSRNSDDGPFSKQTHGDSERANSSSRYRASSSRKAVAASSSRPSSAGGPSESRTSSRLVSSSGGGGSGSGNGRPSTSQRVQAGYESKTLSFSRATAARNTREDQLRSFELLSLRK

C#CCn1c2c(c(Br)c1-c1ccncc1)C(=O)NCC2.Cl [AMI‐331]
Spectra (PSMs) AMI‐329 beads bound (CKL7 (AT5G44100); competitor AMI‐331 5 µM): 1 PSMs | Spectra (PSMs) AMI‐329 beads bound (CKL7 (AT5G44100); competitor AMI‐331 50 µM): 0 PSMs | Spectra (PSMs) AMI‐329 beads bound (CKL5 (AT2G19470); competitor AMI‐331 5 µM): 1 PSMs | Spectra (PSMs) AMI‐329 beads bound (CKL5 (AT2G19470); competitor AMI‐331 50 µM): 0 PSMs | Spectra (PSMs) AMI‐329 beads bound (CKL12 (AT5G57015); competitor AMI‐331 5 µM): 2 PSMs | Spectra (PSMs) AMI‐329 beads bound (CKL12 (AT5G57015); competitor AMI‐331 50 µM): 0 PSMs | Spectra on AMI‐329 beads relative to 0 µM sample (MPK family; 5 µM AMI‐331 as competitor): 13%–85% | Spectra on AMI‐329 beads relative to 0 µM sample (MPK family; 50 µM AMI‐331 as competitor): 0%–31% | Spectra (PSMs) AMI‐329 beads bound ([1]; competitor AMI‐331 5 µM): 0 PSMs | Spectra (PSMs) AMI‐329 beads bound ([1]; competitor AMI‐331 50 µM): 0 PSMs

Source: PMC6747015, “Structure–function study of a novel inhibitor of the casein kinase 1 family in Arabidopsis thaliana” (Plant Direct, 2019)
